Data on seven substances can be found in patent US8110655B2, “Method to promote hair growth and/or delay or treat hair loss by administering a TGF-β antagonist or inhibitor” (Auxagen, Inc., priority 2006, dated 2012).

Series [1] concerns full-thickness burn wounds on pig skin. Nature of the series: Hair growth in full-thickness pig skin burn wound model. The series is classed as in vivo, pig (Yorkshire strain). As to conditions: for hair growth, % of the original pre-burn area: topical, full-thickness burn, postburn day 30. An excerpt: TGF-β peptantagonists with amino acid sequences corresponding to residues 41-65 of TGF-β1 (SEQ ID NO: 8) and TGF-β2 (SEQ ID NO: 9), and TGF-β peptantagonist 6-β1^25 (SEQ ID NO: 7), which have additional 6 glutamate residues at the N-termini were synthesized and purified as described previously. Sterile IntraSite gel was obtained from Smith and Nephew Medical, Ltd. (UK) and mixed with TGF-β peptantagonists in phosphate-buffered saline at a ratio of 3:1 (v/v).
Female pigs (Yorkshire strain, house inbred and specific pathogen-free) weighing 20-25 kg were used in the experiments. The pigs were housed in individual rooms. They were fed standard laboratory chow and water ad libitum. All study protocols were reviewed and approved by the respective institutional animal care committees.
Four pigs weighing 20-25 kg were anesthetized by intramuscular injection of ketamine (5 mg/kg), strenil (cazaporonum) (20 mg/kg), and atropine ([…]). Six uniform burn wounds (110° C., 30 s) were then made symmetrically on the back of each pig using a modified soldering iron with a flat contact area of 20 cm^2. […] After wounding, IntraSite gels containing 6-E-β1^25 and buffer vehicle (as control) were applied to the pig burn wounds. All wounds were dressed with paraffin gauze. TGF-β peptantagonist gel or control gel was applied to the wounds every 2 days for the first 10 days and twice a week for the next 30 days. All wounds were cleaned and measured before each application of the IntraSite gel.
Hair growth was assessed by measuring hair number and hair length in the burn lesion and around the lesion area. Hair growth was monitored every 2 days for the first 10 days and twice a week for 30 more days. Hair growth expressed as a percent of the original wound size was calculated.
The pig model is commonly used in skin injury (e.g., burn) experiments because porcine skin is anatomically very similar to human skin. It was used to determine the ability of 6-E-β1^25 peptantagonist to rescue or restore hair follicles and to promote hair growth in a standardized burn injury. Four pigs weighing 20-25 kg were anesthetized by intramuscular injection of ketamine (5 mg/kg). A soldering iron with a flat contact area of ˜20 cm^2 was used to generate full-thickness burn wounds (110° C., 30 s) at standard sites on the skin of the back. Six thermal burns (three on each side) were created on each pig. After wounding, two lesions were treated with a thin layer of IntraSite gel containing 6-E-β1^25 (SEQ ID NO: 7) (0.15 and 0.6 mM); two received gel alone and two received no topical applications. All wounds were then bandaged and protected from potential contact irritation with a fixed frame. 6-E-β1^25 (SEQ ID NO: 7) and vehicle gels were applied every 2 days for the first 10 days and twice a week for the next 30 days, at which time hair growth was measured and photographed. Each animal served as its own control. […] At 0.15 and 0.6 mM, 6-E-β1^25 (SEQ ID NO: 7) promoted hair growth of 5-10 and 30-40% of the original pre-burn area, respectively.

The next series deals with TGF-β. Nature of the series: TGF-β antagonist activity of C44S/C48S variants (test not specified). To be noted: C44S/C48S versions versus parent peptides.
In series [2] the test system is mink lung epithelial cells. To be noted: mink lung epithelial cells and other cell types; U.S. Pat. No. 6,500,920; cited from earlier work.
Another series concerns PAI-1. As to conditions: mink lung epithelial cells and other cell types; U.S. Pat. No. 6,500,920; cited from earlier work.
Series [3] relates to TGF-β receptors in mink lung epithelial cells. As to conditions: earlier finding of the inventors (U.S. Pat. No. 6,500,920); cited from earlier work.
A short description of series [4]: Stability in solution / in IntraSite gel during storage. As to conditions: C44S/C48S versions versus parent peptides.
Description: One milliliter of sterile 3 mM each of TGF-β peptantagonist 6-E-β1^25 (SEQ ID NO: 7), in phosphate-buffered saline (PBS) or 1 ml of sterile PBS (vehicle) was vigorously mixed with 3 ml of IntraSite gel using two 10 ml syringes connected with a three-way connector.

Entries after “also recorded” stand apart in the source; their conditions may differ.

As for “6-E-β1^25: β1^25 C44S/C48S derivitized with 6 glutamate at the N-terminus (EEEEEEANFSLGPSPYIWSLDTQYSKVLALY; six N-terminal glutamates; listed as Homo Sapiens)”, the “hair growth, % of the original pre-burn area” value in series [1] (0.15 mM in IntraSite gel) is recorded as 5-10%; in series [1] (0.6 mM in IntraSite gel) it was 30-40%. Moreover, the “promotion of hair growth (effective concentrations, dose dependence)” value in series [1] (0.15 and 0.6 mM in IntraSite gel) was “effective in promoting hair growth; also recorded: promote hair growth in a dose-dependent manner”. Further, in series [1] (0.15 and 0.6 mM, topical gel), the “hair growth in the area surrounding the burn wound” value is “promoted hair growth in the area surrounding the burn wound”. Also, the “re-epithelialization and hair growth of treated wounds” value in series [1] (postburn day 30, topical gel) was “exhibited re-epithelialization and hair growth”.

“NH2-ANFSLGPSPYIWSLDTQYSKVLALY-COOH (H-ANFSLGPSPYIWSLDTQYSKVLALY-OH; listed as Homo Sapiens) [β1^25 C44S/C48S, variant of β1^25 (41-65) in which cysteine-44 and cysteine-48 were replaced by serine residues]”: in the series on TGF-β, the “TGF-β antagonist activity compared with the cysteine-containing peptantagonists” value is “the same TGF-β antagonist activity”.

Regarding “β1^25 (41-65): chemically synthesized peptide corresponding to the 41st to 65th amino acid residues of TGF-β1”, the “block of TGF-β-induced growth inhibition” value in series [2] was “block”. The “block of TGF-β-induced expression of PAI-1” value (“block … of PAI-1” for short) in the series on PAI-1 is given as “block”. In addition, the “inhibition of binding of radiolabeled TGF-β1, TGF-β2 and TGF-β3 to TGF-β receptors” value (“inhibition of binding … to TGF-β receptors” for short) in series [3] was “inhibit”.

With “β2^25 (41-65): chemically synthesized peptide corresponding to the 41st to 65th amino acid residues of TGF-β2 (ANFCAGACPYLWSSDTQHSRVLSLY; listed as Homo Sapiens)”, in series [2], the “block of TGF-β-induced growth inhibition” value is given as “block”. Further, the “block … of PAI-1” value with PAI-1 is “block”. In addition, the “inhibition of binding … to TGF-β receptors” value in series [3] is given as “inhibit”.

On to “β2^25 C44S/C48S: variant of β2^25 (41-65) in which cysteine-44 and cysteine-48 were replaced by serine residues (ANFSAGASPYLWSSDTQHSRVLSLY; listed as Homo Sapiens)”, for which the “TGF-β antagonist activity compared with the cysteine-containing peptantagonists” value in the series on TGF-β is listed as “the same TGF-β antagonist activity”. Besides, in series [4], the “stability in solution during storage” value was “better stability in solution during storage”.

Take “β3^25 (41-65): chemically synthesized peptide corresponding to the 41st to 65th amino acid residues of TGF-β3 (ANFCSGPCPYLRSADTTHSTVLGLY; listed as Homo Sapiens)”: the “block of TGF-β-induced growth inhibition” value in series [2] was “block”. The “block … of PAI-1” value in the series on PAI-1 is “block”. Besides, the “inhibition of binding … to TGF-β receptors” value in series [3] is “inhibit”.

For the substance “β3^25 C44S/C48S: variant of β3^25 (41-65) in which cysteine-44 and cysteine-48 were replaced by serine residues (ANFSSGPSPYLRSADTTHSTVLGLY; listed as Homo Sapiens)”, the “TGF-β antagonist activity compared with the cysteine-containing peptantagonists” value in the series on TGF-β is “the same TGF-β antagonist activity”. The “stability in solution during storage” value in series [4] is “better stability in solution during storage”.
